Reference: patent publication US20190112598A1, “Methods and Systems of Cell-Free Enzyme Discovery and Optimization” (President and Fellows of Harvard College, priority 2016, published 2019)

Molecular target: T1, AcuR (Cereibacter sphaeroides, UniProt Q3J6K8)
T1 construct: made in house; host or cells: cell-free expression reaction (NEB P/N E6800 components A and B) from T7-promoter linear dsDNA, made in the assay well itself
T1 sequence (Q3J6K8 1-219): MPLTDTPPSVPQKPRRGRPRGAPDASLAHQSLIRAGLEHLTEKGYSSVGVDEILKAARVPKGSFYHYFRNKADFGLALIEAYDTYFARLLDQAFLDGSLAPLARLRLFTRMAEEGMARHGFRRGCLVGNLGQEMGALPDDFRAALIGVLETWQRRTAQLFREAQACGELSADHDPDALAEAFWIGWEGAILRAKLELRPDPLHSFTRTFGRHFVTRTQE
Test: Cell-free observation of acrylate: AcuR sensor with GFP reporter in a cell-free expression reaction
Type: biochemical
Conditions: 0.1 mM sodium acrylate; 37° C.; 395 nm excitation; measured every two minutes for 4 hours; sample without acrylate rose to 260; FIG. 1
Source text: DNA encoded biological acrylate sensor was used to detect acrylate. AcuR is a transcription factor whose activity is dependent on the concentration of acrylate. A linear dsDNA encoding the acrylate sensor AcuR is combined with a reporter circular plasmid which contained a GFP protein controlled by a promoter regulated by AcuR. Thus, GFP fluorescence is related to the amount of acrylate in the sample.
In order to obtain an adequate signal-to-noise ratio (SNR), a T7 promoter was used to drive the expression of the sensor to achieve high expression of the sensor protein and ensure outnumbering of the number of reporter promoters, and well controlled expression. Additionally, an E. coli RNAP promoter was used to drive expression on the reporter, as it reduces the level of background signal, and provides with a more accurate control by AcuR.
Linear DNA amplification: Linear dsDNA containing AcuR was prepared by PCR amplification using primers which contain a T7 promoter, and ribosome binding site (RBS). […]
The samples were incubated at 37° C., and the fluorescence signal (395 nm excitation, 470 nm […]) of the sample was measured every two minutes for 4 hours.

## C=CC(=O)O [acrylate]
  increase of fluorescence (GFP reporter signal): 750 arbitrary units
